Measured values: US9221833B2, “Antiviral compounds” (GILEAD PHARMASSET LLC, priority 2011, dated 2015)
Like-named read-outs stand apart in the source and are kept apart here.

Experiments:
genotype 1a H77 replicon = experiment: microbe, parasite or virus in culture; format: cell-based, HCV; settings: Hepatitis C virus
Procedure: (§1) Evaluation of cell-based anti-HCV activity: Antiviral potency (EC50) was determined using a Renilla luciferase (RLuc)-based HCV replicon reporter assay. […] To perform the assay for genotype 2a (with M31 present in NS5A) or 2b, NS5A chimeric genotype 2a JFH-1 replicons that encodes a RLuc-Neo reporter and either genotype 2a J6 strain NS5A gene or genotype 2b MD2b-1 strain NS5A gene (both with M31 present) respectively, were either transiently transfected (t) into Huh-Lunet cells or were established as stably replicating replicon cells (s) is provided. Either cells were dispensed into 384-well plates for EC50 assays. To perform the assay for genotype 3 and 4, NS5A chimeric genotype 1b Con1 replicons that encodes a Pi-RLuc reporter and either genotype 3a S52 strain NS5A gene or genotype 4a ED43 strain NS5A gene respectively, were transiently transfected (t) into Huh-Lunet cells, which were subsequently dispensed into 384-well plates. Compounds were dissolved in DMSO at a concentration of 10 mM and diluted in DMSO either manually or using an automated pipeting instrument. Serially 3-fold diluted compounds were either manually mixed with cell culture media and added to the seeded cells or directly added to the cells using an automated instrument. […] 72 hours later, cells were lysed and Renilla luciferase activity quantified as recommended by the manufacturer (Promega-Madison, Wis.). Non-linear regression was performed to calculate EC50 values.

[1] = system: genotype 1b Con1 replicon; experiment: microbe, parasite or virus in culture; format: cell-based, HCV
Procedure: as §1

[2] = system: genotype 2b MD2b-1 strain NS5A gene (M31 present); experiment: microbe, parasite or virus in culture; format: cell-based, HCV
Procedure: as §1

[3] = system: genotype 2a J6 strain NS5A gene (M31 present); experiment: Replicon assay, NS5A chimeric 2a JFH-1 replicon with 2a J6 NS5A, transient (t) or stable (s), Huh-Lunet cells; format: cell-based, HCV
Procedure: as §1

[4] = system: genotype 2a JFH-1 replicon (L31 present in NS5A); experiment: microbe, parasite or virus in culture; format: cell-based, HCV; settings: Hepatitis C virus, read-out: 2a JFH
[5] = system: genotype 2a JFH-1 replicon (L31 present in NS5A); experiment: microbe, parasite or virus in culture; format: cell-based, HCV
Procedure: as §1

[6] = system: genotype 3a S52 strain NS5A gene; experiment: Replicon assay, NS5A chimeric 1b Con1 replicon with 3a NS5A, transiently transfected Huh-Lunet cells; format: cell-based, HCV
Procedure: as §1

[7] = system: genotype 4a ED43 strain NS5A gene; experiment: Replicon assay, NS5A chimeric 1b Con1 replicon with 4a NS5A, transiently transfected Huh-Lunet cells; format: cell-based, HCV; settings: Hepatitis C virus
Procedure: as §1, with “[…],” for “were transiently transfected (t) into Huh-Lunet cells,”

Q30R in genotype 1a NS5A = experiment: Antiviral potency against resistance mutant, 1a Pi-Rluc replicon in Huh-7-derived cured-51 cells; format: cell-based, HCV
Procedure: as §1
To determine the antiviral potency (EC50) against resistance mutants, resistance mutations, including M28T, Q30R, Q30H, L31M, and Y93C in genotype 1a NS5A and Y93H in genotype 1b NS5A, were introduced individually into either 1a Pi-Rluc or 1b Pi-Rluc replicons by site directed mutagenesis. Replicon RNA of each resistant mutant was transiently transfected into Huh-7-derived cured-51 cells and antiviral potency was determined on these transfected cells as described above.

[8] = IV and PO Single Dose Pharmacokinetic Studies in SD Rats; format: in vivo, male Sprague-Dawley (SD) rats; settings: oral bioavailability, PO 2 mg/kg vs IV infusion 1 mg/kg
Procedure: IV and PO Single Dose Pharmacokinetic Studies in SD Rats: The pharmacokinetics of selected compounds was characterized in male Sprague-Dawley (SD) rats (250-300g). […] The intravenous (IV) dosing vehicle was 5% ethanol, 35% polyethylene glycol 400 (PEG 400) and 60% water pH 2.0. […] Serial blood samples (approximately 0.3 mL each) were collected from jugular vein or other suitable vein at specified time points. […] The blood samples were collected into Vacutainer™ tubes containing EDTA-K3 as the anti-coagulant and were centrifuged at approximately 4° C. to obtain plasma. The plasma samples were stored at −20° C. until analysis by LC/MS/MS. […] Standard curve and quality control samples were prepared in male rat plasma and processed in the same way as the test samples to generate quantitative data. […] Values below the lower limit of quantification (LLOQ) were assigned a value of zero if predose and treated as missing thereafter. Area under the curve (AUC) was calculated using the linear trapezoidal rule. The oral bioavailability (% F) was determined by comparison of the area under the curve (AUC) of the compound and/or a metabolite generated in plasma following oral administration to that generated following intravenous administration.

[9] = Hepatitis C virus, read-out: 1b (nM)
[10] = Hepatitis C virus, read-out: 2b
[11] = Hepatitis C virus, read-out: 2a J6
[12] = Hepatitis C virus, read-out: 2a JFH (nM)
[13] = Hepatitis C virus, read-out: 2b (s) (nM)
[14] = Hepatitis C virus, read-out: 2b (t) (nM)
[15] = Hepatitis C virus, read-out: 2a J6 (t) (nM)

| SMILES | EC50 (genotype 1a H77 replicon; read-out: 1a) | EC50 [1, 9] | EC50 [2, 10] | EC50 [3, 11] | EC50 [4] | EC50 (genotype 1a H77 replicon; read-out: 1a (nM)) | EC50 [5, 12] | EC50 [2, 13] | EC50 [2, 14] | EC50 [3, 15] | EC50 ([7]; read-out: 4a) | EC50 ([7]; read-out: 4a (s) (nM)) | also measured |
| --- | --- | --- | --- | --- | --- | --- | --- | --- | --- | --- | --- | --- | --- |
| CCC(C)[C@H](NC(=O)OC)C(=O)N1C[C@@H](C)CC1c1ncc(-c2ccc3c(c2)COc2cc4c(ccc5nc([C@@H]6C[C@H](COC)CN6C(=O)[C@@H](NC(=O)OC)C(C)OC)[nH]c54)cc2-3)[nH]1 (stereo in doubt) [Example QD, Methyl {(2S,3R)-1-[(2S,4S)-2-(5-{2-[(2S,4S)-1-[N-(methoxycarbonyl)-O-methyl-L-allothreonyl]-4-(methoxymethyl)pyrrolidin-2-yl]-1,11-dihydroisochromeno[4′,3′:6,7]naphtho[1,2-d]imidazol-9-yl}-1H-imidazol-2-yl)-4-methylpyrrolidin-1-yl]-3-methyl-1-oxopentan-2-yl}carbamate] | < 1 nM | 0.03 nM | < 1 nM | < 1 nM | < 1000 pM |  |  |  |  |  |  |  |  |
| COC(=O)NC(C(=O)N1CCCC1c1nc2ccc3cc4c(cc3c2[nH]1)OCc1cc(-c2cnc(C3CCCN3C(=O)C(NC(=O)O)C(C)C)[nH]2)ccc1-4)c1ccccc1 (stereo not drawn) [Example LQ, [1-(2-{5-[2-(1-{[(Methoxycarbonyl)amino](phenyl)acetyl}pyrrolidin-2-yl)-1,11-dihydroisochromeno[4′,3′:6,7]naphtho[1,2-d]imidazol-9-yl]-1H-imidazol-2-yl}pyrrolidin-1-yl)-3-methyl-1-oxobutan-2-yl]carbamic acid] | < 1 nM | 0.02 nM | < 1 nM | < 1 nM | < 1000 pM | 0.022 nM | 0.004 nM | 0.035 nM | 0.012 nM | 0.134 nM | < 1 nM | 0.02 nM | EC50 ([3]; Hepatitis C virus, read-out: 2a J6 (s) (nM)): 0.543 nM; EC50 ([6]; Hepatitis C virus, read-out: 3a): < 1 nM; EC50 ([6]; Hepatitis C virus, read-out: 3a (nM)): 0.005 nM; EC50 ([7]; read-out: 4a (t) (nM)): 0.008 nM; EC50 (Q30R in genotype 1a NS5A; Hepatitis C virus, read-out: 1a Q30R): < 1 nM; EC50 (Q30R in genotype 1a NS5A; Hepatitis C virus, read-out: 1a Q30R (nM)): 0.135 nM |
| COC[C@H]1C[C@@H](c2nc3ccc4cc5c(cc4c3[nH]2)OCc2cc(-c3cnc([C@@H]4C[C@H]6C[C@H]6N4C(=O)[C@@H](NC(=O)OC)[C@@H](C)OC)[nH]3)ccc2-5)N(C(=O)[C@H](NC(=O)OC)c2ccccc2)C1 [Example MX] | < 1 nM | 0.076 nM | < 1 nM | < 1 nM | < 1000 pM | 0.036 nM | 0.024 nM | 0.139 nM | 0.07 nM | 0.035 nM | < 1 nM | 0.033 nM |  |
| COC[C@H]1C[C@@H](c2nc3ccc4cc5c(cc4c3[nH]2)OCc2cc(-c3cnc([C@@H]4CC[C@H](C)N4C(=O)[C@@H](NC(=O)OC)C(C)C)[nH]3)ccc2-5)N(C(=O)[C@@H](NC(=O)OC)[C@@H](C)OC)C1 [Example OM, Methyl {(2S)-1-[(2S,4S)-2-(5-{2-[(2S,5S)-1-{(2S,3R)-3-methoxy-2-[(methoxycarbonyl)amino]butanoyl}-4-(methoxymethyl)pyrrolidin-2-yl]-1,11-dihydroisochromeno[4′,3′:6,7]naphtho[1,2-d]imidazol-9-yl}-1H-imidazol-2-yl)-5-methylpyrrolidin-1-yl]-3-methyl-1-oxobutan-2-yl}carbamate] |  |  |  |  |  |  |  |  |  |  |  |  | EC50 ([1]; read-out: 1b): 0.019 nM; EC50 ([5]; genotype 2a JFH replicon, EC50 range class, read-out: 2a JFH): < 1 nM; EC50 ([5]; genotype 2a JFH replicon, read-out: 2a JFH): 0.009 nM; EC50 ([2]; genotype 2b, EC50 range class, transiently transfected cells (t), if unavailable stably replicating cells (s), read-out: 2b): < 1 nM; EC50 ([2]; stably replicating cells (s), read-out: 2b (s)): 0.054 nM; EC50 ([2]; transiently transfected cells (t), read-out: 2b (t)): 0.053 nM; EC50 ([3]; genotype 2a J6, EC50 range class, transiently transfected cells (t), if unavailable stably replicating cells (s), read-out: 2a J6): < 1 nM; EC50 ([3]; transiently transfected cells (t), read-out: 2a J6 (t)): 0.045 nM; EC50 ([6]; genotype 3a, EC50 range class, read-out: 3a): < 1 nM; EC50 ([6]; genotype 3a, read-out: 3a): 0.035 nM; EC50 (Q30R in genotype 1a NS5A; genotype 1a Q30R resistance mutant, EC50 range class, read-out: 1a Q30R): < 1 nM; EC50 (Q30R in genotype 1a NS5A; genotype 1a Q30R resistance mutant, read-out: 1a Q30R): 0.035 nM; Rat % F [8]: 12.2% |
